Results taken from US20070049593A1 (priority 2004, published 2007).
Counter-ions that a name gives are not always drawn.

target: T1, HCV polymerase (Hepatitis C virus genotype 1b, UniProt P26663); assay: biochemical; parameters: species or system HCV BK strain; details: not given
T1 construct: a region encoding NS5B (J Virol 1991 March, 65(3), 1105-13, 544 amino acids after deletion of 47 amino acids on the C-terminal); 6xHis (C); made in house; host or cells: Escherichia coli
Summary of the method: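 Recombinant HCV BK-strain NS5B (C-terminal 47 aa deleted, His6-tagged, E. coli), 0.5 μg/ml, run with 5 μg/ml in vitro-transcribed RNA template (polyU/3′X), ATP/GTP/CTP 50 μM, UTP 2 μM plus [3H]UTP, pH 7.5, 25° C, 90 min. TCA-precipitated RNA counted by scintillation; IC50 from activity with vs without compound.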

T1 sequence (P26663 2420-2963): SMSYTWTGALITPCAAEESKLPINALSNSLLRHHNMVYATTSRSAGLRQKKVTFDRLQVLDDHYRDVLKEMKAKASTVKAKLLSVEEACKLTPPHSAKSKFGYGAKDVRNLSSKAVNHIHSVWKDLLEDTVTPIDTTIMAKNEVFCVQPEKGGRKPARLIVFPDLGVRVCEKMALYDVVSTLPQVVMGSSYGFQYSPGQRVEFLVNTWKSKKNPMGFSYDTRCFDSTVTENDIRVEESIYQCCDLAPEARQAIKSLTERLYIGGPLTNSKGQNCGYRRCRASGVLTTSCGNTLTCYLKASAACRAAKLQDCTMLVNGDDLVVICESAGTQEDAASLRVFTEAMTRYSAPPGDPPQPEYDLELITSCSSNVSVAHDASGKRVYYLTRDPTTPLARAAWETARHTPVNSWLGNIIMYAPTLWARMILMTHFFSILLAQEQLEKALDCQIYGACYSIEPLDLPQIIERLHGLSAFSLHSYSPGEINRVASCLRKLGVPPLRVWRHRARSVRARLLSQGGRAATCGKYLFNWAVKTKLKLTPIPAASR

Row | SMILES | IC50 [nM]
1 | CCC1COCCN1CCN1CCn2c(c(C3CCCCC3)c3ccc(C(=O)O)cc32)-c2ccc(C)cc21 (centres unmarked) [Example 1-292, 13-cyclohexyl-5-[2-(3-ethylmorpholin-4-yl)ethyl]-3-methyl-6,7-dihydro-5H-benzo[5,6][1,4]diazepino[7,1-a]indole-10-carboxylic acid dihydrochloride] | < 100
2 | COCC1CCCN(CCN2CCn3c(c(C4CCCCC4)c4ccc(C(=O)O)cc43)-c3ccc(Cl)cc32)C1 (centres unmarked) [Example 1-293, 3-chloro-13-cyclohexyl-5-[2-(3-methoxymethylpiperidin-1-yl)ethyl]-6,7-dihydro-5H-benzo[5,6][1,4]diazepino[7,1-a]indole-10-carboxylic acid dihydrochloride] | < 100
3 | CCc1ccc2c(c1)N(CCN1CCCCC1)CCn1c-2c(C2CCCCC2)c2ccc(C(=O)O)cc21 [Example 1-295, 13-cyclohexyl-3-ethyl-5-[2-(piperidin-1-yl)ethyl]-6,7-dihydro-5H-benzo[5,6][1,4]diazepino[7,1-a]indole-10-carboxylic acid dihydrochloride] | < 100
4 | CC(C)c1ccc2c(c1)N(CCN1CCCCC1)CCn1c-2c(C2CCCCC2)c2ccc(C(=O)O)cc21 [Example 1-296, 13-cyclohexyl-3-isopropyl-5-[2-(piperidin-1-yl)ethyl]-6,7-dihydro-5H-benzo[5,6][1,4]diazepino[7,1-a]indole-10-carboxylic acid dihydrochloride] | < 100
5 | CSc1ccc2c(c1)N(CCCN1CCCCC1)CCn1c-2c(C2CCCCC2)c2ccc(C(=O)O)cc21 [Example 1-297, 13-cyclohexyl-3-methylsulfanyl-5-[3-(piperidin-1-yl)propyl]-6,7-dihydro-5H-benzo[5,6][1,4]diazepino[7,1-a]indole-10-carboxylic acid dihydrochloride] | < 100
6 | Cc1ccc2c(c1)N(CCCN1CCCCC1)CCn1c-2c(C2CCCCC2)c2ccc(C(=O)O)cc21 [Example 1-298, 13-cyclohexyl-3-methyl-5-[3-(piperidin-1-yl)propyl]-6,7-dihydro-5H-benzo[5,6][1,4]diazepino[7,1-a]indole-10-carboxylic acid dihydrochloride] | < 100
7 | Cc1ccc2c(c1)N(CCCN1CCCC1)CCn1c-2c(C2CCCCC2)c2ccc(C(=O)O)cc21 [Example 1-299, 13-cyclohexyl-3-methyl-5-[3-(pyrrolidin-1-yl)propyl]-6,7-dihydro-5H-benzo[5,6][1,4]diazepino[7,1-a]indole-10-carboxylic acid dihydrochloride] | < 100
8 | Cc1ccc2c(c1)N(CCCN1CCCCCC1)CCn1c-2c(C2CCCCC2)c2ccc(C(=O)O)cc21 [Example 1-300, 5-[3-(azepan-1-yl)propyl]-13-cyclohexyl-3-methyl-6,7-dihydro-5H-benzo[5,6][1,4]diazepino[7,1-a]indole-10-carboxylic acid dihydrochloride] | < 100
9 | Cc1ccc2c(c1)N(CCCN(C)C)CCn1c-2c(C2CCCCC2)c2ccc(C(=O)O)cc21 [Example 1-301, 13-cyclohexyl-5-(3-dimethylaminopropyl)-3-methyl-6,7-dihydro-5H-benzo[5,6][1,4]diazepino[7,1-a]indole-10-carboxylic acid dihydrochloride] | < 100
10 | CCN(CC)CCCN1CCn2c(c(C3CCCCC3)c3ccc(C(=O)O)cc32)-c2ccc(Cl)cc21 [Example 1-302, 3-chloro-13-cyclohexyl-5-(3-diethylaminopropyl)-6,7-dihydro-5H-benzo[5,6][1,4]diazepino[7,1-a]indole-10-carboxylic acid dihydrochloride] | < 100
11 | CSc1ccc2c(c1)N(CCN1CCCC1)CCn1c-2c(C2CCCCC2)c2ccc(C(=O)O)cc21 [Example 1-303, 13-cyclohexyl-3-methylsulfanyl-5-[2-(pyrrolidin-1-yl)ethyl]-6,7-dihydro-5H-benzo[5,6][1,4]diazepino[7,1-a]indole-10-carboxylic acid dihydrochloride] | < 100
12 | COCC1CCCCN1CCN1CCn2c(c(C3CCCCC3)c3ccc(C(=O)O)cc32)-c2ccc(Cl)cc21 (centres unmarked) [Example 1-304, 3-chloro-13-cyclohexyl-5-[2-(2-methoxymethylpiperidin-1-yl)ethyl]-6,7-dihydro-5H-benzo[5,6][1,4]diazepino[7,1-a]indole-10-carboxylic acid dihydrochloride] | < 100
13 | COCC1CCCCN1CCN1CCn2c(c(C3CCCCC3)c3ccc(C(=O)O)cc32)-c2ccc(C)cc21 (centres unmarked) [Example 1-305, 13-cyclohexyl-5-[2-(2-methoxymethylpiperidin-1-yl)ethyl]-3-methyl-6,7-dihydro-5H-benzo[5,6][1,4]diazepino[7,1-a]indole-10-carboxylic acid dihydrochloride] | < 100
14 | COCCC1CCCN(CCN2CCn3c(c(C4CCCCC4)c4ccc(C(=O)O)cc43)-c3ccccc32)C1 (centres unmarked) [Example 1-306, 13-cyclohexyl-5-{2-[3-(2-methoxyethyl)piperidin-1-yl]ethyl}-6,7-dihydro-5H-benzo[5,6][1,4]diazepino[7,1-a]indole-10-carboxylic acid dihydrochloride] | < 100
15 | COCCC1CCCN(CCN2CCn3c(c(C4CCCCC4)c4ccc(C(=O)O)cc43)-c3ccc(Cl)cc32)C1 (centres unmarked) [Example 1-307, 3-chloro-13-cyclohexyl-5-{2-[3-(2-methoxyethyl)piperidin-1-yl]ethyl}-6,7-dihydro-5H-benzo[5,6][1,4]diazepino[7,1-a]indole-10-carboxylic acid dihydrochloride] | < 100
16 | COCCC1CCCN(CCN2CCn3c(c(C4CCCCC4)c4ccc(C(=O)O)cc43)-c3ccc(C)cc32)C1 (centres unmarked) [Example 1-308, 13-cyclohexyl-5-{2-[3-(2-methoxyethyl)piperidin-1-yl]ethyl}-3-methyl-6,7-dihydro-5H-benzo[5,6][1,4]diazepino[7,1-a]indole-10-carboxylic acid dihydrochloride] | < 100
17 | CN(C)CCN1CCn2c(c(C3CCCCC3)c3ccc(C(=O)O)cc32)-c2ccc(OCc3cc(S(C)(=O)=O)ccc3N3CCOCC3)cc21 [Example 1-309, 13-cyclohexyl-5-(2-dimethylaminoethyl)-3-[5-methanesulfonyl-2-(morpholin-4-yl)benzyloxy]-6,7-dihydro-5H-benzo[5,6][1,4]diazepino[7,1-a]indole-10-carboxylic acid trihydrochloride] | < 100
18 | COC(=O)Oc1ccc2c(c1)N(CCN(C)C)CCn1c-2c(C2CCCCC2)c2ccc(C(=O)O)cc21 [Example 1-310, 13-cyclohexyl-5-(2-dimethylaminoethyl)-3-methoxycarbonyloxy-6,7-dihydro-5H-benzo[5,6][1,4]diazepino[7,1-a]indole-10-carboxylic acid dihydrochloride] | < 100
19 | CN(C)CCN1CCn2c(c(C3CCCCC3)c3ccc(C(=O)O)cc32)-c2ccc(Oc3ccccc3)cc21 [Example 1-311, 13-cyclohexyl-5-(2-dimethylaminoethyl)-3-phenoxy-6,7-dihydro-5H-benzo[5,6][1,4]diazepino[7,1-a]indole-10-carboxylic acid dihydrochloride] | < 100

same assay, conditions: 25° C., 90 min; [5,6-3H]UTP incorporation into RNA; read-out: HCV polymerase inhibitory activity IC50

Row | SMILES | IC50 [nM]
20 | COCC1CCCN(CCN2CCn3c(c(C4CCCCC4)c4ccc(C(=O)O)cc43)-c3ccc(C)cc32)C1 (centres unmarked) [Example 1-294, 13-cyclohexyl-5-[2-(3-methoxymethylpiperidin-1-yl)ethyl]-3-methyl-6,7-dihydro-5H-benzo[5,6][1,4]diazepino[7,1-a]indole-10-carboxylic acid dihydrochloride] | < 100
